Where a SMILES comes first, the peptide text is derived from it. [ ]: non-standard residue; d: D form.
Target: T1, endothelin subtype A receptor ETAR (Homo sapiens, UniProt P25101)
T1 construct: TE-671 cells, human medulloblastoma (ATCC CRL 8805), naturally express endothelin subtype A receptor ETAR; host or cells: TE-671 human medulloblastoma cells
T1 sequence (P25101 21-427): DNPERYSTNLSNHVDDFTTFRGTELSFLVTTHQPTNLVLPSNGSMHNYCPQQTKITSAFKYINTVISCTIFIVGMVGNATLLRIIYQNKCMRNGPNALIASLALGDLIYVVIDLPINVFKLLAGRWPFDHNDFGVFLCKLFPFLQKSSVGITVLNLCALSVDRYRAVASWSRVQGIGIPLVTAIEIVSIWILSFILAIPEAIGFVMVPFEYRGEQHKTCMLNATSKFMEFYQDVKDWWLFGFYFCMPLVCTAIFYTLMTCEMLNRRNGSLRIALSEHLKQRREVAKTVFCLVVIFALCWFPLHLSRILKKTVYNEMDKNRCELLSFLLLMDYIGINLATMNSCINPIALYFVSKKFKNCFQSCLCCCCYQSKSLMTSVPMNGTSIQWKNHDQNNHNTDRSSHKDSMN
Experiment: ET-1 induced intracellular calcium mobilization in TE-671 cells (flow apparatus, FURA-2)
Type: cell-based
Procedure: TE-671 cells, human medulloblastoma (ATCC CRL 8805), naturally express endothelin subtype A receptor ETAR.
The apparatus was a negative pressure computer controlled unit as described above. This run was performed in the presence of several concentrations of ETAR specific competitive antagonist BQ-123 (shown in nanomolar concentration).
TE-671 cells were prepared for use in the cell physiometer of the present invention by growing them in a T75 flask until confluence. The growth media was decanted and the cells were washed twice with Dulbecco's phosphate buffered saline (DPBS) and supplemented with a fresh DPBS containing 2 μM FURA-2AM, which easily penetrates into cell cytoplasm and is hydrolyzed there with nonspecific esterases to form FURA 2, a dye which is sensitive to the ionized form of calcium. After 30 min incubation, the cells were supplemented with the equal volume of fresh DPBS and incubated for further 30 min. The cells, now loaded with the dye, were detached from the flask bottom with 0.05% Trypsin-EDTA solution. The cells were then washed twice with DPBS, containing 0.1% soybean trypsin inhibitor, and resuspended in calcium-free, magnesium-free and phenol red-free Dulbecco's modified Eagle's medium (DMEM).
This gives three fold final dilution for each component of the flow passing through mixing zone 343 and eventually, detector 355. The proportioning valve 327, was programmed for the first, second and third runs to give final BQ-123 concentration of zero, 10 nM and 40 nM, respectively.
The flow rate and the length of the reaction developing line were chosen so that the time interval from the point of mixing the cells with the compound to the point of signal detection in the flow-through optical cell was 40 seconds.

`CC(C)C[C@@H]1NC(=O)[C@@H](C(C)C)NC(=O)[C@@H]2CCCN2C(=O)[C@@H](CC(=O)O)NC(=O)[C@@H](Cc2c[nH]c3ccccc23)NC1=O` [BQ-123] (cyclo(L[dW][dD]P[dV])) was tested, and the Kb was 11 nM, the “type of inhibition (shift of ET-1 activation curves)” value (TE-671 cells, activation curves parallel shifted to the right in the presence of BQ-123) was “competitive type of inhibition” and the Ki (TE-671 cells, corresponds to the pA2 value, read-out: inhibition constant, K1) was 11 nM.

Source: patent US6958221B2, “Cell flow apparatus and method for real-time measurements of patient cellular responses” (Caliper Life Sciences, Inc., priority 1996, dated 2005)
